Earlier results on one molecule are cited in patent publication US20090054377A1, “COMPOSITIONS AND METHODS FOR SMOKING CESSATION” (MODUS BIOLOGICAL MEMBRANES LTD., priority 2004, published 2009).

Like-named read-outs stand apart in the source and are kept apart here.

The test system of series [1] is smokers.
The subject of series [2] is smokers. The settings on record: in vivo.
The mark [3] stands for this setting: other smoking cessation remedies.

For the molecule `CC(NC(C)(C)C)C(=O)c1cccc(Cl)c1` (stereo not shown) [Bupropion (Zyban), Bupropion], in series [1] (300 mg/day), the “% Quitters” value was 25% and the “Absolute quit rate (quit rate − quit rate of placebo)” value is listed as 11. In series [1] (setting [3]), the “% Quitters” value is recorded as 22.5% and the “Absolute quit rate (quit rate − quit rate of placebo)” value is recorded as 13.5. Moreover, in series [2], the “Adverse Events: Anxiety” value was 8%, the “Adverse Events: Constipation” value was 8%, the “Adverse Events: Diarrhea” value is reported as 4% and the “Adverse Events: Dizziness” value was 8-10%. In series [2], the “Adverse Events: Dream abnormality” value was 5%, the “Adverse Events: Dry Mouth” value is listed as 1-11%, the “Adverse Events: Insomnia” value is listed as 31-40% and the “Adverse Events: Rhinitis” value was 12%. Moreover, the “Adverse Events: Seizures” value in series [2] is on record as 0.4%.
